# Experimental data from US9504729B2, “Antiangiogenic small molecules and methods of use” (The United States of America, as represented by the …, priority 2009, dated 2016).
# Tested on: angiogenesis genes in dermal microvascular endothelial cells
# Test: Real time RT-PCR of angiogenesis gene expression during endothelial tube formation
# Assay type: cell-based
# Details: 1 μM SM, 24 hours
# Experimental: For gene expression studies, three independent experiments were run for each SM tested. 90.000 cells/well (6 wells/treatment) of dermal microvascular endothelial cells (Lonza, Walkersville, Md.) were seeded on polymerized GELTREX™ gel matrix (Invitrogen, Carlsbad, Calif.) in 24 well plates. Wells were immediately treated with the same volume of 1 μM SM or PBS. After 24 hours incubation at 37° C. and 5% CO2, cells were extracted using Cell Recovery Solution (BD Biosciences, San Jose, Calif., Cat. #354253). Total RNA was extracted with the RNeasy Mini Kit (Qiagen, Valencia, Calif., Cat. #74104), and retrotranscribed using […]® First-Strand reverse transcriptase (Invitrogen, Carlsbad, Calif., Cat. #11904-018). The real time PCR reactions were performed in an Opticon 2 cycler (MJ Research, Waltham, Mass.). Amplification was performed in a final volume of 25 μl, containing 2 μl cDNA (1:10 dilution from the reversed transcribed reaction) and 2 μl of primer mixture (10 μM each of forward and reverse primers). Samples were amplified as follows: after initial denaturation at 95 C for 2 minutes, reactions were run for 46 cycles at 95° C. for 30 seconds, 60° C. for 30 seconds, and 72° C. for 45 seconds. Fluorescence was measured in every cycle and a melting curve was run after the PCR by increasing temperature from 50 to 96° C. (in 0.5° C. increments). A defined single peak was obtained for all amplicons, thus confirming the specificity of the amplification.
# The genes that were monitored were selected based on their relevance to the angiogenesis process. All experiments were done in triplicate. The results are shown in the volcano plots of FIG. 17. Log 2 fold-change is presented in the X-axis and log 10 P value in the Y-axis.
smiles,measurement,setting,value
COc1ccc(CC2C(=O)NC(C)C(=O)N(C)C3Cc4ccc(cc4)Oc4cc(ccc4O)CC(C(=O)NC(C)C(=O)NC(C)C(=O)N2C)N(C)C3=O)cc1 (centres unmarked) [compound 259969],Log2 fold-change of gene expression: 1839,,−4.2
same,Log2 fold-change of gene expression: 4247,,0.2
same,Log2 fold-change of gene expression: 5569,,4.6
same,Log2 fold-change of gene expression: 8131,,−0.2
same,Log2 fold-change of gene expression: 9569,,−1.7
same,Log2 fold-change of gene expression: 10988,,0.3
same,Log2 fold-change of gene expression: 23001,,0.3
same,Log2 fold-change of gene expression: 55332,,0.1
same,Log2 fold-change of gene expression: 57722,,−0.1
same,Log2 fold-change of gene expression: 58488,,0.4
same,Log2 fold-change of gene expression: 90780,,−2.4
same,Log2 fold-change of gene expression: 134265,,−0.6
same,Log2 fold-change of gene expression: AKT1,,−1.4
same,Log2 fold-change of gene expression: ANGPT1,,1.4
same,Log2 fold-change of gene expression: ANGPT2,,0.9
same,Log2 fold-change of gene expression: ANGPTL3,,3.6
same,Log2 fold-change of gene expression: ANGPTL4,,1.5
same,Log2 fold-change of gene expression: ANPEP,,0.2
same,Log2 fold-change of gene expression: ANTXR1,,−1.4
same,Log2 fold-change of gene expression: APOE,,0.8
same,Log2 fold-change of gene expression: ARHGEF1,,−0.8
same,Log2 fold-change of gene expression: Acvrl1,,−1.9
same,Log2 fold-change of gene expression: Adcy4,,−0.6
same,Log2 fold-change of gene expression: BAL1,,0.4
same,Log2 fold-change of gene expression: BMP1,,−0.6
same,Log2 fold-change of gene expression: C1orf54,,−6.1
same,Log2 fold-change of gene expression: CALD1,,−0.6
same,Log2 fold-change of gene expression: CCL2,,3.6
same,Log2 fold-change of gene expression: CCL11,,0.0
same,Log2 fold-change of gene expression: CD248,,0.6
same,Log2 fold-change of gene expression: CDH5,,−1.6
same,Log2 fold-change of gene expression: CENTD3,,−1.0
same,Log2 fold-change of gene expression: CLIC1,,1.8
same,Log2 fold-change of gene expression: COL4A3,,3.2
same,Log2 fold-change of gene expression: COL18A1,,1.9
same,Log2 fold-change of gene expression: COMT,,−1.7
same,Log2 fold-change of gene expression: CST4,,0.4
same,Log2 fold-change of gene expression: CTTNBP2NL,,−1.0
same,Log2 fold-change of gene expression: CXCL3,,11.6
same,Log2 fold-change of gene expression: CXCL5,,10.2
same,Log2 fold-change of gene expression: CXCL6,,1.0
same,Log2 fold-change of gene expression: CXCL9,,0.5
same,Log2 fold-change of gene expression: CXCL10,,2.8
same,Log2 fold-change of gene expression: Calcr1,,−2.9
same,Log2 fold-change of gene expression: Caskin2,,−2.3
same,Log2 fold-change of gene expression: Ccbp2,,5.6
same,Log2 fold-change of gene expression: Cldn5,,0.4
same,Log2 fold-change of gene expression: DGKG,,6.1
same,Log2 fold-change of gene expression: DKK3,,−2.7
same,Log2 fold-change of gene expression: DLL4,,−4.1
same,Log2 fold-change of gene expression: DUT,,−1.9
same,Log2 fold-change of gene expression: EFNA1,,7.8
same,Log2 fold-change of gene expression: EFNA3,,0.3
same,Log2 fold-change of gene expression: EFNB2,,−6.6
same,Log2 fold-change of gene expression: EGF,,0.2
same,Log2 fold-change of gene expression: ENG,,−0.7
same,Log2 fold-change of gene expression: EPHB4,,0.3
same,Log2 fold-change of gene expression: EREG,,9.3
same,Log2 fold-change of gene expression: ESAM1,,−1.6
same,Log2 fold-change of gene expression: EXTL3,,0.4
same,Log2 fold-change of gene expression: Egf17,,−2.3
same,Log2 fold-change of gene expression: Ehd4,,−0.7
same,Log2 fold-change of gene expression: Entpd1,,−5.6
same,Log2 fold-change of gene expression: Epas1,,1.5
same,Log2 fold-change of gene expression: EphB1,,0.6
same,Log2 fold-change of gene expression: Erg,,−3.9
same,Log2 fold-change of gene expression: FGF1,,5.7
same,Log2 fold-change of gene expression: FGF2,,2.5
same,Log2 fold-change of gene expression: FGFR3,,1.2
same,Log2 fold-change of gene expression: FIGF,,0.2
same,Log2 fold-change of gene expression: FLT1,,−0.7
same,Log2 fold-change of gene expression: Fgd5,,−0.8
same,Log2 fold-change of gene expression: GPCR124,,−4.6
same,Log2 fold-change of gene expression: GRRP1,,0.6
same,Log2 fold-change of gene expression: Grp116,,−5.5
same,Log2 fold-change of gene expression: HAND2,,1.4
same,Log2 fold-change of gene expression: HGF,,1.5
same,Log2 fold-change of gene expression: HIF1A,,0.7
same,Log2 fold-change of gene expression: HPSE,,2.6
same,Log2 fold-change of gene expression: Hspa12b,,−10.2
same,Log2 fold-change of gene expression: ID1,,1.5
same,Log2 fold-change of gene expression: ID3,,2.5
same,Log2 fold-change of gene expression: IFNA1,,1.1
same,Log2 fold-change of gene expression: IFNB1,,1.6
same,Log2 fold-change of gene expression: IFNG,,6.0
same,Log2 fold-change of gene expression: IGF1,,−2.6
same,Log2 fold-change of gene expression: IL1B,,1.3
same,Log2 fold-change of gene expression: IL6,,9.4
same,Log2 fold-change of gene expression: IL8,,11.3
same,Log2 fold-change of gene expression: ITGAV,,−0.9
same,Log2 fold-change of gene expression: ITGB3,,−2.9
same,Log2 fold-change of gene expression: Icam1,,2.8
same,Log2 fold-change of gene expression: Icam2,,7.5
same,Log2 fold-change of gene expression: JAG1,,1.7
same,Log2 fold-change of gene expression: KDR,,−0.5
same,Log2 fold-change of gene expression: Kifc1,,−4.8
same,Log2 fold-change of gene expression: LAMAS5,,−0.8
same,Log2 fold-change of gene expression: LECT1,,−8.0
same,Log2 fold-change of gene expression: LEP,,0.8
same,Log2 fold-change of gene expression: Lasts2,,1.5
same,Log2 fold-change of gene expression: Lrrk1,,0.3
same,Log2 fold-change of gene expression: MDK,,−1.0
same,Log2 fold-change of gene expression: MMP2,,−0.1
same,Log2 fold-change of gene expression: MMP9,,4.3
same,Log2 fold-change of gene expression: MMP11,,0.1
same,Log2 fold-change of gene expression: MRC2,,−0.6
same,Log2 fold-change of gene expression: Mmm2,,−7.5
same,Log2 fold-change of gene expression: Myo1b,,−3.0
same,Log2 fold-change of gene expression: NID1,,−3.6
same,Log2 fold-change of gene expression: NM023516,,0.9
same,Log2 fold-change of gene expression: NRP1,,−2.6
same,Log2 fold-change of gene expression: NRP2,,−3.5
same,Log2 fold-change of gene expression: Notch4,,−0.3
same,Log2 fold-change of gene expression: Npr3,,2.7
same,Log2 fold-change of gene expression: PALD,,−1.3
same,Log2 fold-change of gene expression: PDCD2,,−1.7
same,Log2 fold-change of gene expression: PDGFA,,1.1
same,Log2 fold-change of gene expression: PECAM1,,−3.0
same,Log2 fold-change of gene expression: PGF,,−7.2
same,Log2 fold-change of gene expression: PLAU,,3.8
same,Log2 fold-change of gene expression: PLG,,−1.0
same,Log2 fold-change of gene expression: PNMT,,−0.1
same,Log2 fold-change of gene expression: PROK2,,2.2
same,Log2 fold-change of gene expression: PTGS1,,2.9
same,Log2 fold-change of gene expression: PTPRCAP,,0.9
same,Log2 fold-change of gene expression: Pltp,,1.4
same,Log2 fold-change of gene expression: Ptprb,,−0.1
same,Log2 fold-change of gene expression: Ptprm,,1.7
same,Log2 fold-change of gene expression: RAMP2,,−5.9
same,Log2 fold-change of gene expression: RASD2,,0.5
same,Log2 fold-change of gene expression: Rasip1,,−1.1
same,Log2 fold-change of gene expression: S1PR1,,−0.3
same,Log2 fold-change of gene expression: SERPINF1,,6.5
same,Log2 fold-change of gene expression: SPHK1,,3.2
same,Log2 fold-change of gene expression: STAB1,,0.5
same,Log2 fold-change of gene expression: Sdc4,,4.0
same,Log2 fold-change of gene expression: Sdpr,,0.9
same,Log2 fold-change of gene expression: Slc43a3,,0.2
same,Log2 fold-change of gene expression: Slco2a1,,−2.4
same,Log2 fold-change of gene expression: TEK,,1.6
same,Log2 fold-change of gene expression: TGFA,,8.7
same,Log2 fold-change of gene expression: TGFB1,,0.3
same,Log2 fold-change of gene expression: TGFB2,,1.3
same,Log2 fold-change of gene expression: TGFBR1,,1.1
same,Log2 fold-change of gene expression: THBS1,,−0.1
same,Log2 fold-change of gene expression: THBS2,,2.6
same,Log2 fold-change of gene expression: THY1,,−3.0
same,Log2 fold-change of gene expression: TIMP1,,2.5
same,Log2 fold-change of gene expression: TIMP2,,0.0
same,Log2 fold-change of gene expression: TIMP3,,−0.6
same,Log2 fold-change of gene expression: TNF,,9.3
same,Log2 fold-change of gene expression: TNS1,,−0.3
same,Log2 fold-change of gene expression: TNS3,,−8.0
same,Log2 fold-change of gene expression: TRA2B,,0.6
same,Log2 fold-change of gene expression: TYMP,,0.1
same,Log2 fold-change of gene expression: VEGFA,,5.7
same,Log2 fold-change of gene expression: VEGFC,,1.9
same,Log2 fold-change of gene expression: VGLL4,,1.3
same,Log2 fold-change of gene expression: Vwf,,−5.4
same,Log2 fold-change of gene expression: copa,,−2.1
same,Log2 fold-change of gene expression: itbp4,,−1.7
same,Log2 fold-change of gene expression: ralb,,0.7
same,Log2 fold-change of gene expression: stard9,,0.0
same,Log2 fold-change of gene expression: B2M,1st listing (r49),1.2
same,Log2 fold-change of gene expression: HPRT1,1st listing (r50),0.6
same,Log2 fold-change of gene expression: RPL13A,1st listing (r51),1.2
same,Log2 fold-change of gene expression: GADPH,1st listing (r52),−1.0
same,Log2 fold-change of gene expression: ACTB,1st listing (r53),−2.5
same,Log2 fold-change of gene expression: PLXDC1,1st listing (r74),2.3
same,Log2 fold-change of gene expression: TNFAIP2,1st listing (r91),4.6
same,Log2 fold-change of gene expression: Robo4,1st listing (r95),−4.1
same,Log2 fold-change of gene expression: 151516,1st listing (r134),0.5
same,Log2 fold-change of gene expression: TNFAIP2,2nd listing (r92),4.7
same,Log2 fold-change of gene expression: B2M,2nd listing (r97),1.5
same,Log2 fold-change of gene expression: HPRT1,2nd listing (r98),−0.5
same,Log2 fold-change of gene expression: RPL13A,2nd listing (r99),0.7
same,Log2 fold-change of gene expression: GADPH,2nd listing (r100),0.0
same,Log2 fold-change of gene expression: ACTB,2nd listing (r101),−2.2
same,Log2 fold-change of gene expression: PLXDC1,2nd listing (r104),−2.4
same,Log2 fold-change of gene expression: 151516,2nd listing (r139),0.5
same,Log2 fold-change of gene expression: Robo4,2nd listing (r188),0.3
same,Log2 fold-change of gene expression: B2M,3rd listing (r145),0.5
same,Log2 fold-change of gene expression: HPRT1,3rd listing (r146),0.8
same,Log2 fold-change of gene expression: RPL13A,3rd listing (r147),0.0
same,Log2 fold-change of gene expression: GADPH,3rd listing (r148),−1.7
same,Log2 fold-change of gene expression: ACTB,3rd listing (r149),−2.2
same,Log2 fold-change of gene expression: B2M,4th listing (r193),0.8
same,Log2 fold-change of gene expression: HPRT1,4th listing (r194),0.5
same,Log2 fold-change of gene expression: RPL13A,4th listing (r195),0.0
same,Log2 fold-change of gene expression: GADPH,4th listing (r196),−2.1
same,Log2 fold-change of gene expression: ACTB,4th listing (r197),0.4
